Test results published in US10774092B2 (SALK INSTITUTE FOR BIOLOGICAL STUDIES, priority 2014, dated 2020).

Legend:
A549 lung cancer cells = experiment: Cyto-ID autophagy dye detection of autophagic vacuoles; format: cell-based
Experimental: FIG. 9E is an immunoflourescence imaging of A549 cells treated in the presence or absence of 5 μM compound 14 for 2 hr followed by 4 μM of the mTOR catalytic inhibitor AZD8055 for 24 hr. Autophagic vacuoles were detected using the Cyto-ID autophagy detection kit and are visualized in green, while cell nuclei were counterstained by DAPI and are visualized in blue.
(§1) To test the ability of compound 14 to block autophagy and cell survival, initial studies were performed in A549 lung cancer cells, which are highly sensitive to mTOR inhibition. […] Next, we genetically assessed the requirement for ULK1 versus other kinases inhibited by compound 14 to induce autophagy after pharmacological mTOR inhibition. A robust high-throughput microscopy method for quantifying GFP-LC3 puncta was established using a PC3 prostate-cancer cell line stably expressing a GFP-LC3 construct. Using this assay, we performed a focused RNAi analysis of the top 20 kinases identified in the DiscovRx screen as best binding to compound 14. […] Strikingly, of the 18 kinases tested, only one kinase siRNA, ULK1, nearly fully abolished the LC3 puncta induced by the mTOR inhibitors (FIG. 9D).

endogenous ULK1 activity = experiment: mobility shift of endogenous Beclin1 and Atg13 (endogenous ULK1 activity) in MEFs; format: cell-based, mouse; conditions: WT MEFs, 10 μM co-treatment, 1 hr
Experimental: FIG. 7D: WT or Ulk1/Ulk2 double knockout mouse embryonic fibroblasts (MEFs) were treated with fresh media (Dulbecco's modified Eagle medium [DMEM] containing 10% FBS) containing 1-μM INK128, 1-μM AZD8055, or DMSO or with starvation media (EBSS) in the presence or absence of 10 μM compound 14. Cellular lysates were isolated after 1 hr of treatment and immunoblotted with the indicated antibodies. Asterisk denotes non-specific band.
We next examined whether compound 14 inhibits endogenous ULK1 activity. To activate endogenous ULK1, we treated MEFs with either amino acid starvation media (Earle's balanced salt solution [EBSS]) or the mTOR ATP-competitive inhibitors INK128 or AZD8055. In WT MEFs, we observed a mobility shift in endogenous Beclin1 and Atg13 in response to EBSS starvation media or the mTOR catalytic inhibitors, which was abolished in Ulk1/2-deficient MEFs (FIG. 7D). […] In certain embodiments, the mobility shifts observed in endogenous Beclin1 and Atg13 induced by mTOR inhibitors and starvation media reflect phosphorylation of endogenous Beclin1/Atg13 by endogenous ULK1/2 as they only occur in WT but not Ulk1/2-deficient MEFs.

[1] = system: PC3 prostate-cancer cell line stably expressing GFP-LC3; experiment: GFP-LC3 puncta high-throughput microscopy; format: cell-based, human; conditions: control siRNA cells, 1 μM mTOR catalytic inhibitor for 4 hr
Experimental: At 48 hr after RNAi transfection, the cells were treated with 1 μM of the catalytic mTOR inhibitors AZD8055 or INK128 for 4 hr and assessed for the presence of GFP-LC3 puncta. The average number of GFPLC3 puncta and SD for each siRNA and drug treatment are shown. SRC, c-Src; c-Src kinase, CSK.
as §1

ULK1 = ULK1 (Homo sapiens, UniProt O75385); experiment: ULK1 inhibition assay (Table 1); format: biochemical; conditions: * = tested as a mixture of regioisomers
Chain of ULK1 (O75385 whole entry, looked up): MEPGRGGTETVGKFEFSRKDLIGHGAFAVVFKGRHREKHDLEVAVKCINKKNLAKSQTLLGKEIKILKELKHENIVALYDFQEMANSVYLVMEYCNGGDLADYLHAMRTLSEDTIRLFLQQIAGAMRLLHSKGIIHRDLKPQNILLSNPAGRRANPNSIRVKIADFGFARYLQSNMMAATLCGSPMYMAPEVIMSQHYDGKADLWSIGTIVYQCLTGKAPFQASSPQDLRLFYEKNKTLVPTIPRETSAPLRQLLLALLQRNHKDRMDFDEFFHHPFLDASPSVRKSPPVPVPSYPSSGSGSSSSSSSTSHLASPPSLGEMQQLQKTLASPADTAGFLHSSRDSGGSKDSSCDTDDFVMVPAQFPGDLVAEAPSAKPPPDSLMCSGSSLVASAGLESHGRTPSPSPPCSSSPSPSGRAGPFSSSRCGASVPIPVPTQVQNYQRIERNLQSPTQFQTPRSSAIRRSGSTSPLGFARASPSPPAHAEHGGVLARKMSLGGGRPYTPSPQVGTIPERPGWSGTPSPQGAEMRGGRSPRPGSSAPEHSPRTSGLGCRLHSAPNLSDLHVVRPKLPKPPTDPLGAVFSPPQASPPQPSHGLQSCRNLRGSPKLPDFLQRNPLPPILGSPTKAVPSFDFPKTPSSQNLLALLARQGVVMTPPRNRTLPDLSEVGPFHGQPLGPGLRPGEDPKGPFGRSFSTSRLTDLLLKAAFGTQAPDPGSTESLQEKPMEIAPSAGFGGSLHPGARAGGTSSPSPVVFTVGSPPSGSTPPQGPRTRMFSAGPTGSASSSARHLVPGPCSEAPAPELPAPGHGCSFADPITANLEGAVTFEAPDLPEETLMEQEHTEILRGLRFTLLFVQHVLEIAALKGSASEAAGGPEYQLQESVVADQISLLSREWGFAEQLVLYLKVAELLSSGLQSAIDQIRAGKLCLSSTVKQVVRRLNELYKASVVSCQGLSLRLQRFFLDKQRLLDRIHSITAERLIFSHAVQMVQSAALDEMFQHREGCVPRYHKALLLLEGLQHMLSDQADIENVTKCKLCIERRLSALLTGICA

CNC(=O)c1ccccc1Nc1nc(Nc2cc(OC)c(OC)c(OC)c2)ncc1Br [compound 14, 2-(5-bromo-2-(3,4,5-trimethoxyphenylamino)pyrimidin-4-ylamino)-N-methylbenzamide]
effect on AZD8055-induced autophagy (Cyto-ID dye accumulation) (A549 lung cancer cells; 5-μM 6965 with AZD8055): strongly suppressed | EBSS and mTOR-inhibitor induced mobility shift in Beclin1 and Atg13 (endogenous ULK1 activity): inhibited

CC(C)n1nc(-c2ccc3oc(N)nc3c2)c2c(N)ncnc21 [INK128, 3-(2-amino-5-benzoxazolyl)-1-(1-methylethyl)-1H-pyrazolo[3,4-d]pyrimidin-4-amine]
induction in GFP-LC3 puncta formation [1]: 2 fold

COc1ccc(-c2ccc3c(N4CCOC[C@@H]4C)nc(N4CCOC[C@@H]4C)nc3n2)cc1CO [AZD8055, (5-(2,4-bis((S)-3-methylmorpholino)pyrido[2,3-d]pyrimidin-7-yl)-2-methoxyphenyl)methanol, reference compound]
induction in GFP-LC3 puncta formation [1]: 2 fold | autophagy induction (Cyto-ID dye accumulation) (A549 lung cancer cells; AZD8055 alone): induced robust autophagy

Oc1ccc(CCNc2ncc(C(F)(F)F)c(NC3CC3)n2)cc1 [Example 246, 4-(2-((4-(cyclopropylamino)-5-(trifluoromethyl)pyrimidin-2-yl)amino)ethyl)phenol]
IC50 (ULK1): 0.2 to 2 µM

FC(F)(F)c1cnc(NCc2cccc3ccccc23)nc1NC1CC1 [Example 262, N4-cyclopropyl-N2-(naphthalen-1-ylmethyl)-5-(trifluoromethyl)pyrimidine-2,4-diamine]
IC50 (ULK1): > 2 µM
